Test results: ChEMBL document CHEMBL5052856, “Inhibitors of apol1 and methods of using same” (2021)

Assays:
Apolipoprotein L1 = Apolipoprotein L1 (Homo sapiens, UniProt O14791); experiment: Inhibition of APOL1 G1 variant in human HEK293-T-REx cells measured by Thallium assay; format: cell-based
[1] = system: Trypanosoma brucei brucei; experiment: Antitrypanosomal activity against Trypanosoma brucei brucei assessed as trypanosome lysis using recombinant APOL1 protein G1 variant and measured by Alamar blue based fluoresence assay; format: functional, organism-based

| Compound | IC50 (Apolipoprotein L1) [nM] | IC50 [1] [nM] |
| --- | --- | --- |
| O=C([C@H]1C[C@H](c2c(-c3ccc(F)cc3)[nH]c3c(F)cc(F)cc32)C1)N1CCN(CCO)CC1 | > 1000 | > 1000 |
| O=C([C@H]1C[C@H](c2c(-c3ccc(F)cc3)[nH]c3c(F)cc(F)cc32)C1)N1CCCC1CCO (stereo not given in full) | > 1000 | 250 |
| CCN(CCO)C(=O)[C@H]1C[C@H](c2c(-c3ccc(F)cc3)[nH]c3c(F)cc(F)cc32)C1 | 0.25 | 250 |
| O=C([C@H]1C[C@H](c2c(-c3ccc(F)cc3)[nH]c3c(F)cc(F)cc32)C1)N1CCC[C@@H](CO)C1 | > 1000 | > 1000 |
| CC(CO)N1CCN(C(=O)[C@H]2C[C@H](c3c(-c4ccc(F)cc4)[nH]c4c(F)cc(F)cc43)C2)CC1 (stereo not given in full) | > 1000 | > 1000 |
| O=C([C@H]1C[C@H](c2c(-c3ccc(F)cc3)[nH]c3c(F)cc(F)cc32)C1)N(CCO)CCCO | > 1000 | 250 |
| CC(C)N(CCO)C(=O)[C@H]1C[C@H](c2c(-c3ccc(F)cc3)[nH]c3c(F)cc(F)cc32)C1 | > 1000 | 250 |
| CC(C)(O)C1CN(C(=O)[C@H]2C[C@H](c3c(-c4ccc(F)cc4)[nH]c4c(F)cc(F)cc43)C2)C1 | > 1000 | > 1000 |
| CC(O)CN(C)C(=O)[C@H]1C[C@H](c2c(-c3ccc(F)cc3)[nH]c3c(F)cc(F)cc32)C1 (stereo not given in full) | > 1000 | 250 |
| CC(=O)C1CCCCN1C(=O)[C@H]1C[C@H](c2c(-c3ccc(F)cc3)[nH]c3c(F)cc(F)cc32)C1 (stereo not given in full) | > 1000 | 250 |
| CC(O)CN(CCO)C(=O)[C@H]1C[C@H](c2c(-c3ccc(F)cc3)[nH]c3c(F)cc(F)cc32)C1 (stereo not given in full) | 0.25 | < 250 |
| CC1(C)CN(C(=O)[C@H]2C[C@H](c3c(-c4ccc(F)cc4)[nH]c4c(F)cc(F)cc43)C2)CC1O (stereo not given in full) | > 1000 | > 1000 |
| O=C(NCCOCCO)[C@H]1C[C@H](c2c(-c3ccc(F)cc3)[nH]c3c(F)cc(F)cc32)C1 | < 250 | < 250 |
| O=C([C@H]1C[C@H](c2c(-c3ccc(F)cc3)[nH]c3c(F)cc(F)cc32)C1)N1CCO[C@H](CO)C1 | > 1000 | > 1000 |
| CC1(C)CN(C(=O)[C@H]2C[C@H](c3c(-c4ccc(F)cc4)[nH]c4c(F)cc(F)cc43)C2)CCC1O (stereo not given in full) | > 1000 | > 1000 |
| CN(CC(C)(C)O)C(=O)[C@H]1C[C@H](c2c(-c3ccc(F)cc3)[nH]c3c(F)cc(F)cc32)C1 | > 1000 | > 1000 |
| O=C(NC(CO)CF)[C@H]1C[C@H](c2c(-c3ccc(F)cc3)[nH]c3c(F)cc(F)cc32)C1 (stereo not given in full) | < 250 | < 250 |
| O=C(NCc1ccn[nH]1)[C@H]1C[C@H](c2c(-c3ccc(F)cc3)[nH]c3c(F)cc(F)cc32)C1 | 0.25 | 250 |
| CC1(O)CC(C(=O)N2CCN(C(=O)[C@H]3C[C@H](c4c(-c5ccc(F)cc5)[nH]c5c(F)cc(F)cc54)C3)CC2(C)C)C1 (stereo not given in full) | > 1000 | > 1000 |
| O=C([C@H]1C[C@H](c2c(-c3ccc(F)cc3)[nH]c3c(F)cc(F)cc32)C1)N1CCCC(CCO)C1 (stereo not given in full) | > 1000 | > 1000 |
| CN(CCO)C(=O)[C@H]1C[C@H](c2c(-c3ccc(F)cc3)[nH]c3c(F)cc(F)cc32)C1 | < 250 | < 250 |
| O=C([C@H]1C[C@H](c2c(-c3ccc(F)cc3)[nH]c3c(F)cc(F)cc32)C1)N1CCOC(O)C1 (stereo not given in full) | 0.25 | < 250 |
| O=C([C@H]1C[C@H](c2c(-c3ccc(F)cc3)[nH]c3c(F)cc(F)cc32)C1)N1CCC(O)(CO)CC1 | > 1000 | > 1000 |
| CCC1(O)CN(C(=O)[C@H]2C[C@H](c3c(-c4ccc(F)cc4)[nH]c4c(F)cc(F)cc43)C2)C1 | > 1000 | > 1000 |
| O=C([C@H]1C[C@H](c2c(-c3ccc(F)cc3)[nH]c3c(F)cc(F)cc32)C1)N1CC(O)C(N2CCOCC2)C1 (stereo not given in full) | > 1000 | > 1000 |
| O=C([C@H]1C[C@H](c2c(-c3ccc(F)cc3)[nH]c3c(F)cc(F)cc32)C1)N1CC(n2cccn2)C1 | > 1000 | > 1000 |
| CO[C@H]1CCN(C(=O)[C@H]2C[C@H](c3c(-c4ccc(F)cc4)[nH]c4c(F)cc(F)cc43)C2)C1 | > 1000 | > 1000 |
| O=C(NCC1(O)CCCCC1)[C@H]1C[C@H](c2c(-c3ccc(F)cc3)[nH]c3c(F)cc(F)cc32)C1 | > 1000 | > 1000 |

| Compound | IC50 (Apolipoprotein L1) [nM] | IC50 [1] [nM] |
| --- | --- | --- |
| NC(=O)C1CCN(C(=O)[C@H]2C[C@H](c3c(-c4ccc(F)cc4)[nH]c4c(F)cc(F)cc43)C2)CC1 | > 1000 | > 1000 |
| O=C([C@H]1C[C@H](c2c(-c3ccc(F)cc3)[nH]c3c(F)cc(F)cc32)C1)N1CCCCC1CCO (stereo not given in full) | > 1000 | > 1000 |
| O=C([C@H]1C[C@H](c2c(-c3ccc(F)cc3)[nH]c3c(F)cc(F)cc32)C1)N1CCC(CO)(CO)CC1 | > 1000 | > 1000 |
| O=C([C@H]1C[C@H](c2c(-c3ccc(F)cc3)[nH]c3c(F)cc(F)cc32)C1)N1CC[C@H](CO)[C@H](O)C1 | > 1000 | > 1000 |
| C[C@H]1CN(C(=O)[C@H]2C[C@H](c3c(-c4ccc(F)cc4)[nH]c4c(F)cc(F)cc43)C2)CC[C@@H]1O | > 1000 | > 1000 |
| CC(O)C1CCN(C(=O)[C@H]2C[C@H](c3c(-c4ccc(F)cc4)[nH]c4c(F)cc(F)cc43)C2)CC1 (stereo not given in full) | > 1000 | > 1000 |
| O=C([C@H]1C[C@H](c2c(-c3ccc(F)cc3)[nH]c3c(F)cc(F)cc32)C1)N1CCC(CCO)CC1 | > 1000 | > 1000 |
| CC(=O)NC1CCCN(C(=O)[C@H]2C[C@H](c3c(-c4ccc(F)cc4)[nH]c4c(F)cc(F)cc43)C2)C1 (stereo not given in full) | > 1000 | > 1000 |
| CCC(O)(CCCO)CNC(=O)[C@H]1C[C@H](c2c(-c3ccc(F)cc3)[nH]c3c(F)cc(F)cc32)C1 (stereo not given in full) | > 1000 | > 1000 |
| O=C([C@H]1C[C@H](c2c(-c3ccc(F)cc3)[nH]c3c(F)cc(F)cc32)C1)N1CCC2(COC2)C1 | > 1000 | > 1000 |
| O=C([C@H]1C[C@H](c2c(-c3ccc(F)cc3)[nH]c3c(F)cc(F)cc32)C1)N1CCC(O)(O)CC1 | > 1000 | 250 |
| CCN(C(=O)[C@H]1C[C@H](c2c(-c3ccc(F)cc3)[nH]c3c(F)cc(F)cc32)C1)C(C)CO (stereo not given in full) | > 1000 | 250 |
| CN(CC1(CO)CCOCC1)C(=O)[C@H]1C[C@H](c2c(-c3ccc(F)cc3)[nH]c3c(F)cc(F)cc32)C1 | > 1000 | > 1000 |
| NC(=O)[C@@H]1CCCN1C(=O)[C@H]1C[C@H](c2c(-c3ccc(F)cc3)[nH]c3c(F)cc(F)cc32)C1 | > 1000 | > 1000 |
| O=C([C@H]1C[C@H](c2c(-c3ccc(F)cc3)[nH]c3c(F)cc(F)cc32)C1)N(CCOCCO)C1CCC1 | > 1000 | > 1000 |
| CC1CC(NC(=O)[C@H]2C[C@H](c3c(-c4ccc(F)cc4)[nH]c4c(F)cc(F)cc43)C2)C(=O)N1 (stereo not given in full) | > 1000 | 250 |
| O=C([C@H]1C[C@H](c2c(-c3ccc(F)cc3)[nH]c3c(F)cc(F)cc32)C1)N1CCOCC1CCO (stereo not given in full) | > 1000 | > 1000 |
| O=C(NCC1(CO)COC1)[C@H]1C[C@H](c2c(-c3ccc(F)cc3)[nH]c3c(F)cc(F)cc32)C1 | > 1000 | > 1000 |
| O=C([C@H]1C[C@H](c2c(-c3ccc(F)cc3)[nH]c3c(F)cc(F)cc32)C1)N1C[C@H]2C[C@@]2(CO)C1 | > 1000 | > 1000 |
| O=C([C@H]1C[C@H](c2c(-c3ccc(F)cc3)[nH]c3c(F)cc(F)cc32)C1)N1C2CCC(C2)C1CO (stereo not given in full) | > 1000 | > 1000 |
| O=C([C@H]1C[C@H](c2c(-c3ccc(F)cc3)[nH]c3c(F)cc(F)cc32)C1)N1CC[C@H](CO)C1 | > 1000 | > 1000 |
| CN(C)C[C@@H]1CCN(C(=O)[C@H]2C[C@H](c3c(-c4ccc(F)cc4)[nH]c4c(F)cc(F)cc43)C2)C[C@H]1O | > 1000 | 250 |
| O=C([C@H]1C[C@H](c2c(-c3ccc(F)cc3)[nH]c3c(F)cc(F)cc32)C1)N(CCO)c1cnccn1 | > 1000 | > 1000 |
| O=C([C@H]1C[C@H](c2c(-c3ccc(F)cc3)[nH]c3c(F)cc(F)cc32)C1)N1C[C@@H]2[C@@H](CO)[C@@H]2C1 | > 1000 | > 1000 |
| O=C([C@H]1C[C@H](c2c(-c3ccc(F)cc3)[nH]c3c(F)cc(F)cc32)C1)N1CCCC[C@@H]1CO | > 1000 | 250 |
| O=C(NCCCO)[C@H]1C[C@H](c2c(-c3ccc(F)cc3)[nH]c3c(F)cc(F)cc32)C1 | 0.25 | < 250 |
| C[C@H](O)CNC(=O)[C@H]1C[C@H](c2c(-c3ccc(F)cc3)[nH]c3c(F)cc(F)cc32)C1 | 0.25 | 250 |
